Results reported in paper PMC4452343, “Monitoring β-arrestin recruitment via β-lactamase enzyme fragment complementation: purification of peptide E as a low-affinity ligand for mammalian bombesin receptors” (PLoS ONE, 2015).

Key:
[1] = biological target: T1, hNMBR (Homo sapiens, UniProt P28336); experiment: NFAT-luciferase reporter assay in CHO cells expressing hNMBR; assay type: cell-based; conditions: 6 h incubation, read-out: EC50, activation of NFAT-promotor
T1 construct: expressed in transfected cells; host or cells: CHO cells stably expressing hNMBR
Description: CHO cells stably expressing the GPCR of interest were transiently transfected with NFAT-TA-Luc plasmid (Clontech). Cells were then left overnight before being plated in 96 well plates (20000 cells/well). After an additional 24 h, the synthetic ligands were added to the wells and incubated for 6 h. Following incubation, firefly luciferase assays were performed using the Steady-Glo Luciferase Assay System (Promega). Luminescence was detected with a plate reader (Victor V: Perkin Elmer), according to the manufacturer’s instructions. EC50 values were calculated using Workout 2.0 Data Analysis Software (Perkin Elmer).

[2] = test system: hOX1R; experiment: ß-lactamase EFC assay of ß-arrestin recruitment, OX1R reporter cells; assay type: cell-based, human; conditions: 14 h ligand incubation, CCF4/AM substrate
Description: CHO cells stably expressing both the GPCR-omega chimera and ß-arrestin 2-alpha chimera were plated either in 6 well plates or in 96 well plates. After 24 h, ligands or HPLC fractions were added to the wells, and incubated for 14 h. After incubation, cells were washed once in HBSS and then incubated with CCF4/AM substrate for 2 h. ß-lactamase activity was measured either by FACS or with a plate reader (Victor V: Perkin Elmer).

T1 sequence (P28336 whole entry): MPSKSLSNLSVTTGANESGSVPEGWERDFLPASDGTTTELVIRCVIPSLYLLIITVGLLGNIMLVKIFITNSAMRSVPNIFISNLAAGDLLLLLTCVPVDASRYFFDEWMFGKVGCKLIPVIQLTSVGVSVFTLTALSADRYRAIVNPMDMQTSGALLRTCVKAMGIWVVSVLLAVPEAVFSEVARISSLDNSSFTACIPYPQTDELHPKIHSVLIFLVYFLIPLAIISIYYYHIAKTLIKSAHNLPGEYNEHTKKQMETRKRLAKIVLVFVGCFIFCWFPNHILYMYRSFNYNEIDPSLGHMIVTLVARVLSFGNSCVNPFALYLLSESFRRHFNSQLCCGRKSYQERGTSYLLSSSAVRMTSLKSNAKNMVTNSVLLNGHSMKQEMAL

| Compound | EC50 [1] | Response in ß-lactamase EFC assay (ß-arrestin recruitment to OX1R) [2] |
| --- | --- | --- |
| CSCC[C@H](NC(=O)[C@H](Cc1ccccc1)NC(=O)[C@H](Cc1cnc[nH]1)NC(=O)CNC(=O)[C@@H](NC(=O)[C@H](C)NC(=O)[C@H](Cc1c[nH]c2ccccc12)NC(=O)[C@H](CC(C)C)NC(=O)[C@H](CC(N)=O)NC(=O)CN)[C@@H](C)O)C(N)=O [NMB, neuromedin B] | 0.16 nM | – |
| orexin-A (QPLPDCCRQKTCSCRLYELLHGAGNHAAGILTL) [unrelated peptide; ligand of orexin type 1 receptor, used as control] | – | responded specifically to orexin-A |
